Patent publication US20240053330A1, “MODULAR KINETICALLY-CONTROLLED FUNCTIONAL RNA CONSTRUCTS AND RELATED COMPOSITIONS, SYSTEMS, AND METHODS” (UNIVERSITY OF WASHINGTON, priority 2021, published 2024)

Tested on: J306 target with alternative PAM sequences
Experiment: CRISPRa at alternative PAM sites of the J3-J23117-mRFP1 reporter
Type: cell-based, E. coli
Text: FIGS. 31A and 31B illustrate that dxCas9(3.7) expands the range of targetable scRNA target sites by recognizing alternative PAMs. […] Reporter plasmids were constructed by replacing the AGG PAM site for the J306 target in the J3-J23117-mRFP1 reporter with alternative PAM sequences that have been previously reported to be recognized by dxCas9(3.7) in human cells (Hu, J. H. et al. Evolved Cas9 variants with broad PAM compatibility and high DNA specificity. Nature 556, 57-63 (2018), incorporated herein by reference in its entirety). The (−) sign indicates a control expressing the original reporter with the AGG PAM and the CRISPRa components with Sp-dCas9, the activation domain and no scRNA.
Considering there is a limited number of genes with an appropriate NGG PAM site at precisely the optimal position upstream of the promoter, it was attempted to expand the scope of targetable PAM sites for CRISPRa. A recently characterized dCas9 variant, dxCas9(3.7), that has improved activity at a variety of non-NGG PAM sites including NGN, GAA, GAT, and CAA6 was used. […] PAM sites than NGG PAM sites (not shown), Accounting for the fact that dCas9 has some activity at non-NGG sites6 (FIG. 31), there are still on average ˜2.2-fold more dxCas9(3.7)-compatible PAM sites than dCas9-compatible PAM sites (not shown). […]

With Sp-dCas9: S. pyogenes dCas9 the “CRISPRa activity (in words)” value (non-NGG PAM sites AGA, CGA, GGA, GGC, GGT, TGA) was “moderate CRISPRa activity” and the “activation of AGT PAM site shifted into the peak activation range (in words)” value (reporter with five bases inserted) was “ineffective”.
